What was measured:
[1] = test system: human CD40 transgenic mice; test: Mouse skin graft rejection model (antibodies, tacrolimus combination); assay type: in vivo
Description: Male Balb/c mice, 6 weeks old, were purchased from the Laboratory Animal Management Department, Shanghai Institute of Planned Parenthood Research. Housing environment: SPF; certification number: 20180006023393.
On day-2 of the experiment, the mice were intraperitoneally injected with tacrolimus FK506 or CD40 antagonistic antibodies. On day 0 of the experiment, donor Balb/c mice and C57BL6/J mice were anesthetized with 4% chloral hydrate. The tails of the donor mice were removed, and full circles of skin, 1 cm in length, were isolated from the tails. The hair on the acceptor mice's back was removed, and an incision was made along the skin layer. An equal area of skin was removed while preserving the back fat and connective tissue. The donor skin was placed on the acceptor mice's incision site, and the incision was closed with glue. The mice were then placed back in cages to recover.
The mice were dosed according to the administration regimens in Table 16. After 7 days of recovery, the mouse skin survival was observed daily and rejection scores were recorded.

[2] = biological target: T1, Raji cell surface human CD40 (Homo sapiens, UniProt P25942); test: FACS binding of humanized anti-CD40 antibodies to Raji cells
T1 construct: Raji cells highly express human CD40 on the cell surface; endogenous in cells; host or cells: Raji cells
T1 sequence (P25942 21-277): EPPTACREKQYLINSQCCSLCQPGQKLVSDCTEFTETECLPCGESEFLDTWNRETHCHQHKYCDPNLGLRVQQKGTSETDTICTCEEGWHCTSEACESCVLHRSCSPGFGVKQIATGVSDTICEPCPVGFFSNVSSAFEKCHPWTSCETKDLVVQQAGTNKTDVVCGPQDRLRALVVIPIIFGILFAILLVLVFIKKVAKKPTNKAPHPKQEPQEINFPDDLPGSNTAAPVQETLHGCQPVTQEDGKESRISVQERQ
Protocol: Raji cells highly express human CD40 on the cell surface and thus can be used to detect the binding properties of CD40 antagonistic antibodies to the cell surface human CD40.
Raji cells were plated at 1.5E5 cells/well, and various concentrations of CD40 antagonistic antibodies were added. The plate was incubated at 4° C. for 1 h. After two washes with FACS buffer (PBS+2% FBS), a secondary antibody (Alexa Flour488 conjugated anti-human IgG (H+L) antibody) was added, and the plate was incubated at 4° C. for 0.5 h. After two washes with FACS buffer, the fluorescence intensity on the cell surface was measured by flow cytometry (BD FACS Celesta).

[3] = test system: human CD40 transgenic mice; test: Mouse T cell-dependent humoral immune response (TDAR) model, anti-KLH specific IgG; assay type: in vivo; details: 0.3 mpk BIW ip, hCD40 transgenic mice (IgG1 control 1 mg/kg)
Protocol: On day 0 of the experiment, one of the mice in each group was subjected to blood collection followed by intraperitoneal injection. On day 1, each mouse was intraperitoneally injected with 50 μg of KLH (KLH:complete Freund's adjuvant (CFA)=1:1 emulsified immune complex) for immunization. On day 15 of the experiment, each mouse was intraperitoneally injected with 50 μg of KLH (KLH:incomplete Freund's adjuvant (IFA)=1:1 emulsified immune complex) for a second immunization. Each group was intraperitoneally injected twice a week, and blood samples of about 150 μL were collected from the orbital venous plexus on days 7, 14, 21, and 28. Whole blood was left to stand at room temperature for 1-4 h and centrifuged at 7000 rpm at 4° C. for 10 min to separate serum, and the serum was stored at −80° C. for later use.
Mouse serum was separated weekly and assayed by ELISA for the anti-KLH specific IgG level.

CFZ533: anti-CD40 antagonistic antibody CFZ533 (i.e., iscalimab), positive control, variable regions from U.S. Pat. No. 8,277,810B
Day-15 skin graft survival rate (%) ([1]; 3 mpk ip): 0% | Skin graft score, 8 days ([1]; 3 mpk, score 3 (best) to 0 (rejected)): 2.7 | Skin graft score, 10 days ([1]; 3 mpk, score 3 to 0): 2.1 | Skin graft score, 15 days ([1]; 3 mpk, score 3 to 0): 0 | Skin graft score, 20 days ([1]; 3 mpk, score 3 to 0): 0 | Day-15 skin graft survival rate (%) ([1]; 10 mpk ip): 0% | Skin graft score, 8 days ([1]; 10 mpk, score 3 to 0): 2.9 | Skin graft score, 10 days ([1]; 10 mpk, score 3 to 0): 2.1 | Skin graft score, 15 days ([1]; 10 mpk, score 3 to 0): 0 | Skin graft score, 20 days ([1]; 10 mpk, score 3 to 0): 0 | EC50 [2]: 1.01 nM | anti-KLH specific IgG, Day 7 [3]: 0.04 ± 0.01 | anti-KLH specific IgG, Day 14 [3]: 30.9 ± 10.8 | anti-KLH specific IgG, Day 21 [3]: 845 ± 423 | anti-KLH specific IgG, Day 28 [3]: 3043 ± 1600

From patent publication US20260207759A1, “COMPOSITION OF CD40-BINDING MOLECULE AND PHARMACEUTICAL USE THEREOF” (SUZHOU SUNCADIA BIOPHARMACEUTICALS CO., LTD., priority 2022, published 2026)
